Reference: patent US20060079497A1, “Lavendamycin analogues and methods of synthesizing and using lavendamycin analogues” (Ball State University, priority 2004, published 2006)
Like-named read-outs stand apart in the source and are kept apart here.

Key:
[1] = molecular target: T1, HIV-RT (Human immunodeficiency virus type 1 group M subtype B, UniProt P04585); experiment: Checkerboard combination of lavendamycin analogs with AZT-triphosphate in HIV-RT enzyme assay (Chou and Talalay); type: biochemical
T1 construct: 1 unit/mL of HIV-RT (Worthington Biochemical Corp., Freehold, N.J.); purchased Worthington Biochemical Corp., Freehold, N.J
Experimental: The results were analyzed by the method of Chou and Talalay based on the median-effect principle and represented by combination indices (CI) determined for each of the two drug combinations (e.g., see: Chou, T. C.; Talalay, P. “Quantitative Analysis of Dose-Effect Relationships: The Combined Effects of Multiple Drugs or Enzyme Inhibitors,” Adv. Enzyme Regul., 1984, 22, 27-65; and Chou, J.; Chou, T. C. “Dose-Effect Analysis with Microcomputers: Quantitation of ED50, LD50, Synergism, Antagonism, Low-Dose Risk, Receptor-Ligand Binding and Enzyme Kinetics,” In: A computer Software for IBM-PC and Manual, Cambridge, UK, Elsevier-Biosoft, 1987). This method involves the plotting of dose-effect curves for each agent and for each of the different combinations of the agents. The slope of the median-effect plot, which signifies the shape of the dose-effect curve, and the x intercept of the plot, which signifies the potency of each compound alone and each combination, were then used for a computerized calculation of a combination index.
(§1) The assay procedure described below is adapted from Okada et al. (Okada, H.; Mukai, H.; Inouye, Y; Nakamura, S. “Biological Properties of Streptonigrin Derivatives II. Inhibition of Reverse Transcriptase Activity,” J. Antibiot., 1986, 39, 306-308). The lavendamycin analogs were initially dissolved in DMSO at a concentration of 1 mg/mL. Occasionally, mild sonication and heat were used to dissolve the less soluble compounds. The dissolved analogs were then serially diluted in distilled water to achieve concentrations in the final reaction mixture ranging from 0.5-15 μM. In addition to the lavendamycin analogs, the final reaction mixture contained 100 mM Tris-HCl (pH 8.0), 5 mM MgCl2, 5 mM dithiothreitol, 60 mM NaCl, 0.2 mM [^3H] thymidine triphosphate(5 μCi well), 4 μg/mL poly (rA)-oligo(dT)12-18 (Amersham Pharmacia Biotech, Piscataway, N.J.) and 1 unit/mL of HIV-RT (Worthington Biochemical Corp., Freehold, N.J.) in a total volume of 300 μL. For each assay, the reaction mixture containing 8× buffer, double distilled H2O, ^3HTTP, template-primer and HIV-RT was pre-mixed in a 15-mL sterile tube in quantities required for the particular experiment. After adding the enzyme, the reaction mixture was mixed and kept on ice. The inhibitors, either AZT(Moravek Biochemicals, Brea, Calif.), analogs or both were added to appropriate wells in a 24 well microtiter plate and ddH2O was added to each well to bring the volume of all test wells to 100 μL. Two hundred μL of the chilled reaction mixture was then added to each of the test wells, mixed, and incubated for 1 hr at 37° C. Several control wells with no inhibitors were included on each test plate. After stopping the reactions with 25 μL 0.1 M EDTA, triplicate samples of 15 μL from each test well were spotted on DE81 ion exchange filter paper squares (Whatman Paper, Maidstone, England). After drying, each filter was washed for 10 minutes three times with 5% TCA-NHPO4, three times with 0.6M NaCl-[…] Na Citrate, one time with ddH2O and one time with 95% ethanol. After drying the individual filter papers were added to 5 mL Scintiverse E (Fisher Scientific, Chicago, Ill.) scintillation fluid and the amount of 3H-TTP uptake measured as counts per minute on a Beckman liquid scintillation counter. […] The results were then analyzed using Calcusyn, a windows software program for dose effect analysis designed by T. -C. Chou and M. P. Hayball and published by Biosoft® (UK).

[2] = molecular target: T1, HIV-RT; experiment: Two drug combination of AZT-TP and analogues at constant molar ratios in HIV-RT assay (CI and dose reduction index); type: biochemical
Description: In order to derive the dose reduction index of several of these compounds the method of Chou and Talalay was again employed using the classic isobologram technique. This method also involves the plotting of dose-effect curves for each agent as well as for multiply diluted fixed-ratio combinations of the agents.
The dose reduction index is a measure of how much the dose of each drug in a synergistic combination may be reduced at a given effect level compared with the doses of each drug alone.
as §1

[3] = Water solubility in HEPES buffer solution; type: physicochemical
[4] = system: BALB/c mice; experiment: In vivo toxicity of analogue 19 in BALB/c mice; set-up: species or system mouse
Description: Analogue 19 was first solubilized in 10% dry DMSO, diluted in water, and given to the mice intraperitoneally in one dose or in two doses per day. Mice were weighed and observed for 3 days following treatment.

[5] = analogue 0.75 μM + AZT 0.01 μM, Trial 1
[6] = analogue 0.75 μM + AZT 0.01 μM, Trial 2
[7] = analogue 1.5 μM + AZT 0.007 μM, Trial 1
[8] = analogue 1.5 μM + AZT 0.007 μM, Trial 2
[9] = analogue 1.5 μM + AZT 0.01 μM, Trial 1
[10] = analogue 1.5 μM + AZT 0.01 μM, Trial 2

## CC(=O)NC1=CC(=O)c2ccc(-c3nc(C(=O)O)cc4c3[nH]c3ccccc34)nc2C1=O [Compound 18, 7-N-Acetyldemethyllavendamycin]
[1]
  Combination index: 0.66
[1]; analogue 0.25 μM + AZT 0.007 μM, Trial 1
  Combination index: 0.39
[1]; analogue 0.25 μM + AZT 0.007 μM, Trial 2
  Combination index: 0.37
[1]; analogue 0.25 μM + AZT 0.01 μM, Trial 1
  Combination index: 0.44
[1]; analogue 0.25 μM + AZT 0.01 μM, Trial 2
  Combination index: 0.45
[1]; analogue 0.25 μM + AZT 0.02 μM, Trial 1
  Combination index: 0.59
[1]; analogue 0.25 μM + AZT 0.02 μM, Trial 2
  Combination index: 0.60
[1]; analogue 0.5 μM + AZT 0.007 μM, Trial 1
  Combination index: 0.40
[1]; analogue 0.5 μM + AZT 0.007 μM, Trial 2
  Combination index: 0.42
[1]; analogue 0.5 μM + AZT 0.01 μM, Trial 1
  Combination index: 0.51
[1]; analogue 0.5 μM + AZT 0.01 μM, Trial 2
  Combination index: 0.50
[1]; analogue 0.5 μM + AZT 0.02 μM, Trial 1
  Combination index: 0.97
[1]; analogue 0.5 μM + AZT 0.02 μM, Trial 2
  Combination index: 0.98
[1]; [5]
  Combination index: 0.59
[1]; [6]
  Combination index: 0.57
[1]; analogue 0.75 μM + AZT 0.02 μM, Trial 1
  Combination index: 0.95
[1]; analogue 0.75 μM + AZT 0.02 μM, Trial 2
  Combination index: 0.97
[1]; [7]
  Combination index: 1.00
[1]; [8]
  Combination index: 0.94
[1]; [9]
  Combination index: 0.90
[1]; [10]
  Combination index: 0.82
[1]; analogue 1.5 μM + AZT 0.02 μM, Trial 1
  Combination index: 2.00
[1]; analogue 1.5 μM + AZT 0.02 μM, Trial 2
  Combination index: 2.20
[1]; analogue 1.5 μM together with AZT-TP 0.02 μM
  combined effect with AZT-TP: antagonism
[2]
  dose reduction in combination with AZT-TP: considerable dose reduction
[2]; molar ratio AZT:analogue 1:600
  CI at HIV-RT Inhibition of 70%: 1.35 ± 0.64
  Dose Reduction Index (50%) AZT-TP: 1.5
  Dose Reduction Index (50%) analogue: 2.6
[2]; molar ratio AZT:analogue 1:857
  CI at HIV-RT Inhibition of 70%: 1.7 ± 1.49
  Dose Reduction Index (50%) AZT-TP: 1.7
  Dose Reduction Index (50%) analogue: 2.0
[3]
  Water solubility: 0.05 mg/1 L

## CC(=O)NC1=CC(=O)c2ccc(-c3nc(C(=O)OCCOP(=O)(O)O)cc4c3[nH]c3ccccc34)nc2C1=O [Compound 19]
[1]; analogue 0.75 μM + AZT 0.007 μM, Trial 1
  Combination index: 0.47
[1]; analogue 0.75 μM + AZT 0.007 μM, Trial 2
  Combination index: 0.68
[1]; [5]
  Combination index: 0.64
[1]; [6]
  Combination index: 1.04
[1]; [7]
  Combination index: 0.49
[1]; [8]
  Combination index: 0.81
[1]; [9]
  Combination index: 0.69
[1]; [10]
  Combination index: 0.69
[1]; analogue 3 μM + AZT 0.007 μM, Trial 1
  Combination index: 0.49
[1]; analogue 3 μM + AZT 0.007 μM, Trial 2
  Combination index: 0.79
[1]; analogue 3 μM + AZT 0.01 μM, Trial 1
  Combination index: 0.28
[1]; analogue 3 μM + AZT 0.01 μM, Trial 2
  Combination index: 0.56
[1]; analogue 6 μM + AZT 0.007 μM, Trial 1
  Combination index: 0.32
[1]; analogue 6 μM + AZT 0.007 μM, Trial 2
  Combination index: 0.60
[1]; analogue 6 μM + AZT 0.01 μM, Trial 1
  Combination index: 0.28
[1]; analogue 6 μM + AZT 0.01 μM, Trial 2
  Combination index: 0.75
[2]
  dose reduction in combination with AZT-TP: considerable dose reduction
[2]; molar ratio AZT:analogue 1:600
  CI at HIV-RT Inhibition of 50%: <0.1 ± 0.10
  CI at HIV-RT Inhibition of 70%: <0.1 ± 0.16
  Dose Reduction Index (50%) AZT-TP: >100
  Dose Reduction Index (50%) analogue: >100
[2]; molar ratio AZT:analogue 1:857
  CI at HIV-RT Inhibition of 50%: <0.1 ± 0.15
  CI at HIV-RT Inhibition of 70%: 0.21 ± 0.18
  Dose Reduction Index (50%) AZT-TP: >40
  Dose Reduction Index (50%) analogue: >15
[4]; 50 mg/kg as one ip injection
  survival and tolerability: survived and tolerated
[4]; 75 mg/kg ip in two injections within twenty-four hours
  survival and tolerability: survived and tolerated
[3]
  Water solubility: 0.05 mg/1 mL
